From US5254563A, “Beta-carbolines, process for their production and their use in pharmaceutical agents” (Schering Aktiengesellschaft, priority 1989, dated 1993)

What was measured:
[1] = test system: benzodiazepine receptors; experiment: Inhibition of the H^3-BD binding in vivo (displacement of radioactively-labeled flunitrazepam); settings: mice, i.p.; 3H-flunitrazepam i.v. after 15 minutes, forebrains removed after another 20 minutes; dose reducing specific binding to 50% of control
[2] = Metabolic stability in human liver homogenate; type: in vitro ADME; settings: 2 hours at 37° C., HPLC/fluorimetry, read-out: Metabolic Stability (substance remaining)
Protocol: The metabolic stability is determined by a homogenate of hepatic tissue in physiological common salt solution being incubated with the test substance for 0 or 2 hours at 37° C. Then, the incubation batch is extracted and the content of test substance in the extract is determined by HPLC/fluorimetry. The substance remaining after 2 hours in comparison with 0 hours is expressed in percent stability.

Compound	Inhibition of the H^3 -BD binding In vivo ED50 [1]	remaining at 2 h [2] [%]
COCc1c(C(=O)Oc2ccccc2)ncc2[nH]c3ccc(OCc4ccccc4)cc3c12 [B, 6benzyloxy-4-methoxymethyl-beta-carboline-3-carboxylic acid phenyl ester, reference compound]	greater than 90 mg/kg	–
COCc1c(C(=O)c2ccccc2)ncc2[nH]c3ccc(OCc4ccccc4)cc3c12 [A, 6-Benzyloxy-4-methoxymethyl-3-benzoyl-beta-carboline]	5.0 mg/kg	72
